The text below walks through data of patent US10556943B2, “HLA-DR binding peptides and their uses” (priority 2007, dated 2020).

Like-named read-outs stand apart in the source and are kept apart here.

For one experiment, the target named is T1, purified HLA DRB4*0101 (Homo sapiens, UniProt P01903+P13762, G164S).
T1 construct: MHC molecules utilized were purified from EBV transformed homozygous cell lines or single MHC allele transfected 721.221, C1R, or fibroblast lines; made in house; host or cells: EBV transformed homozygous cell lines or single MHC allele transfected 721.221, C1R, or fibroblast lines
As to the kind of experiment: HLA-DR radioligand binding inhibition assay, DRB4*0101. On the procedure: (§1) Fifteen distinct HLA-DR molecules were used in quantitative assays to measure the binding of peptides to solubilized HLA-DR molecules. […] Briefly, columns of inactivated Sepharose CL4B and Protein A Sepharose were used as pre-columns. HLA-DR molecules were captured by passage of lysates over LB3.1 monoclonal antibody (anti-HLA-DRA) columns. Antibody columns were washed with 10 mM Tris-HCL, pH8.0 with 1% (v/v) NP-40, followed by PBS containing 0.4% (w/v) n-octylglucoside. […] The pH was reduced to 8.0 and the eluates were concentrated by centrifugation in Centriprep 30 concentrators at 2000 rpm (Amicon, Beverly, Mass.).
(§2) Briefly, 1-10 nM of radiolabeled peptide was co-incubated for 2 days at either room temperature or 37° C. with 1 μM to 1 nM purified HLA-DR molecules in the presence of a cocktail of protease inhibitors. Assays were performed at various pH conditions, ranging from pH 4 to pH 7. […] After incubation, the percentage of HLA-DR-bound radioactivity is determined by capturing HLA-DR/peptide complexes on Optiplates (Packard Instruments, Meriden, Conn.) coated with the LB3.1 antibody and determining bound counts per minute using the TopCount microscintillation counter (Packard Instruments). […] Competitor peptides are tested in 2-4 complete, independent experiments, at concentrations ranging from 30 μg/mL to 300 pg/mL.

The target in a further experiment is T2, purified HLA DRB1*1101 (Homo sapiens, UniProt P01903+P01911, A100R/A169T/A87E/I96F/K41T/L162R/M171V/P40S/Q125H/Q178H/Q39Y/Q99D/R42S/S66Y/T262R/V115G/W38E).
T2 construct: MHC molecules utilized were purified from EBV transformed homozygous cell lines or single MHC allele transfected 721.221, C1R, or fibroblast lines; made in house; host or cells: EBV transformed homozygous cell lines or single MHC allele transfected 721.221, C1R, or fibroblast lines
T2 sequence (P01903 26-254, other chains not shown): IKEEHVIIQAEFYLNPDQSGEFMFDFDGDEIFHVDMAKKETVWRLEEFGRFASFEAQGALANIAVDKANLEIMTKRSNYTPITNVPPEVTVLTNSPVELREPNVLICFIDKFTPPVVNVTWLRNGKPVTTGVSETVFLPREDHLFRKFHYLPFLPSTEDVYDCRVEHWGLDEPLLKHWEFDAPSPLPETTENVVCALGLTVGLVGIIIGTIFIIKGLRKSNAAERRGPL
In words: HLA-DR radioligand binding inhibition assay, DRB1*1101. On the procedure:
as §1, §2

Another experiment has as its target T3, purified HLA DRB1*0401 (Homo sapiens, UniProt P01903+P01911, A100K/A169T/F76Y/I96L/K127E/L162R/M171V/N62H/P40V/Q125Y/R42H/S133A/S149N/S66Y/V115G/V209L/W38E).
T3 construct: MHC molecules utilized were purified from EBV transformed homozygous cell lines or single MHC allele transfected 721.221, C1R, or fibroblast lines; made in house; host or cells: EBV transformed homozygous cell lines or single MHC allele transfected 721.221, C1R, or fibroblast lines
As to the kind of experiment: HLA-DR radioligand binding inhibition assay, DRB1*0401. Here is the method: as §1, §2

For a further experiment, the target named is T4, purified HLA DRB1*0404 (Homo sapiens, UniProt P01903+P01911, A100R/A169T/F76Y/I96L/K127E/L162R/M171V/N62H/P40V/Q125Y/R42H/S133A/S149N/S66Y/V209L/W38E).
T4 construct: MHC molecules utilized were purified from EBV transformed homozygous cell lines or single MHC allele transfected 721.221, C1R, or fibroblast lines; made in house; host or cells: EBV transformed homozygous cell lines or single MHC allele transfected 721.221, C1R, or fibroblast lines
In words: HLA-DR radioligand binding inhibition assay, DRB1*0404. Here is the method:
as §1, §2

The target in a further experiment is T5, purified HLA DRB1*0405 (Homo sapiens, UniProt P01903+P01911, A100R/A169T/D86S/F76Y/I96L/K127E/L162R/M171V/N62H/P40V/Q125Y/R42H/S133A/S149N/S66Y/V115G/V209L/W38E).
T5 construct: MHC molecules utilized were purified from EBV transformed homozygous cell lines or single MHC allele transfected 721.221, C1R, or fibroblast lines; made in house; host or cells: EBV transformed homozygous cell lines or single MHC allele transfected 721.221, C1R, or fibroblast lines
As to the kind of experiment: HLA-DR radioligand binding inhibition assay, DRB1*0405. On the procedure:
as §1, §2

The next experiment deals with T6, purified HLA DRB1*0701 (Homo sapiens, UniProt P01903+P01911, A100R/A102G/A103Q/D57E/D86V/E43K/F76Y/K127E/L162R/M171V/P40G/Q125H/Q99D/R33Q/R42Y/R54Q/S133A/S66F/T210M/V115G/Y107V/Y59L/Y89S).
T6 construct: MHC molecules utilized were purified from EBV transformed homozygous cell lines or single MHC allele transfected 721.221, C1R, or fibroblast lines; made in house; host or cells: EBV transformed homozygous cell lines or single MHC allele transfected 721.221, C1R, or fibroblast lines
In words: HLA-DR radioligand binding inhibition assay, DRB1*0701. Here is the method: Fifteen distinct HLA-DR molecules were used in quantitative assays to measure the binding of peptides to solubilized HLA-DR molecules. […] Briefly, columns of inactivated Sepharose CL4B and Protein A Sepharose were used as pre-columns. HLA-DR molecules were captured by passage of lysates over LB3.1 monoclonal antibody (anti-HLA-DRA) columns. Antibody columns were washed with 10 mM Tris-HCL, pH8.0 with 1% (v/v) NP-40, followed by PBS containing 0.4% (w/v) n-octylglucoside.
Briefly, 1-10 nM of radiolabeled peptide was co-incubated for 2 days at either room temperature or 37° C. with 1 μM to 1 nM purified HLA-DR molecules in the presence of a cocktail of protease inhibitors. Assays were performed at various pH conditions, ranging from pH 4 to pH 7. […] After incubation, the percentage of HLA-DR-bound radioactivity is determined by capturing HLA-DR/peptide complexes on Optiplates (Packard Instruments, Meriden, Conn.) coated with the LB3.1 antibody and determining bound counts per minute using the TopCount microscintillation counter (Packard Instruments).

The target in the next experiment is T7, purified HLA DRB5*0101 (Homo sapiens, UniProt P01903+Q30154).
T7 construct: MHC molecules utilized were purified from EBV transformed homozygous cell lines or single MHC allele transfected 721.221, C1R, or fibroblast lines; made in house; host or cells: EBV transformed homozygous cell lines or single MHC allele transfected 721.221, C1R, or fibroblast lines
As to the kind of experiment: HLA-DR radioligand binding inhibition assay, DRB5*0101. On the procedure:
as §1, §2

For orientation: IC50 means the concentration needed to halve the response being measured. `CC[C@H](C)[C@H](NC(=O)CNC(=O)[C@H](CC(=O)O)NC(=O)[C@H](Cc1ccc(O)cc1)NC(=O)[C@@H]1CCCN1C(=O)[C@H](CCCCN)NC(=O)[C@H](C)N)C(=O)N1CCC[C@H]1C(=O)N[C@@H](C)C(=O)N[C@@H](CCCNC(=N)N)C(=O)N[C@@H](CCC(=O)O)C(=O)N[C@H](C(=O)N1CCC[C@H]1C(=O)N[C@@H](CC(=O)O)C(=O)N[C@@H](CC(C)C)C(=O)O)[C@@H](C)CC` [Peptide 9019.0092]: the IC50 at purified HLA DRB4*0101, on purified HLA DRB1*1101, on purified HLA DRB1*0401 and at purified HLA DRB1*0404 was above 20 µM in each case.

As for `CSCC[C@H](NC(=O)[C@H](CCCNC(=N)N)NC(=O)[C@H](C)NC(=O)CN)C(=O)N1CCC[C@H]1C(=O)N[C@@H](CS)C(=O)N[C@@H](C)C(=O)N[C@@H](CCC(=O)O)C(=O)N[C@@H](CC(C)C)C(=O)N[C@H](C(=O)N[C@@H](CCCNC(=N)N)C(=O)N[C@@H](CCC(=O)O)C(=O)N1CCC[C@H]1C(=O)NCC(=O)N[C@@H](CS)C(=O)O)C(C)C` [Peptide 9019.0181], the half-inhibitory concentration (IC50) was above 20 µM at purified HLA DRB1*0405 (read-out: IC50 to purified HLA DRB1*0405, purified HLA DRB1*0405) and 13.1 µM at purified HLA DRB1*0404 (read-out: IC50 to purified HLA DRB1*0404, purified HLA DRB1*0404).

For `CC(C)C[C@H](NC(=O)[C@@H](NC(=O)[C@H](CS)NC(=O)[C@H](CO)NC(=O)CNC(=O)[C@@H](NC(=O)[C@H](CC(=O)O)NC(=O)[C@@H](NC(=O)[C@@H](N)CO)[C@@H](C)O)C(C)C)[C@@H](C)O)C(=O)N[C@H](C(=O)N[C@@H](CS)C(=O)N1CCC[C@H]1C(=O)N[C@@H](CC(C)C)C(=O)N[C@@H](Cc1c[nH]cn1)C(=O)N[C@@H](CC(N)=O)C(=O)O)C(C)C` [Peptide 9019.0043], at purified HLA DRB1*0401 (read-out: IC50 to purified HLA DRB1*0401, purified HLA DRB1*0401), the half-maximal inhibitory concentration (IC50) was above 20 µM.

The molecule `CC[C@H](C)[C@H](NC(=O)[C@H](CCCCN)NC(=O)[C@H](CCC(N)=O)NC(=O)[C@@H](N)CCC(N)=O)C(=O)N[C@@H](CCCNC(=N)N)C(=O)N[C@@H](CCCCN)C(=O)N[C@@H](Cc1ccc(O)cc1)C(=O)N[C@H](C(=O)N[C@@H](CCSC)C(=O)N[C@@H](CCCNC(=N)N)C(=O)N[C@@H](CCCNC(=N)N)C(=O)N[C@@H](CC(C)C)C(=O)N[C@@H](CC(C)C)C(=O)N[C@@H](CCC(N)=O)C(=O)N[C@@H](CCC(=O)O)C(=O)O)[C@@H](C)O` [Peptide 9019.0070] came in with an IC50 at purified HLA DRB1*0405 above 20 µM.

Turning to `CC(C)C[C@H](NC(=O)[C@H](CC(=O)O)NC(=O)[C@H](CCCNC(=N)N)NC(=O)[C@@H](N)Cc1c[nH]cn1)C(=O)N[C@@H](C)C(=O)N[C@@H](C)C(=O)N[C@@H](CCCNC(=N)N)C(=O)N[C@@H](CC(N)=O)C(=O)N[C@H](C(=O)N[C@@H](CC(C)C)C(=O)N[C@H](C(=O)N[C@@H](CCCCN)C(=O)N[C@@H](CO)C(=O)N1CCC[C@H]1C(=O)N[C@@H](CC(N)=O)C(=O)O)C(C)C)C(C)C` [Peptide 9019.0085], the IC50 at purified HLA DRB1*0405 is 11.2 µM.

Consider `CC[C@H](C)[C@H](NC(=O)[C@H](C)NC(=O)[C@@H](NC(=O)[C@@H]1CCCN1C(=O)[C@@H](NC(=O)[C@@H](N)CCCCN)[C@@H](C)CC)C(C)C)C(=O)N[C@@H](CCCCN)C(=O)N[C@H](C(=O)N[C@@H](CC(C)C)C(=O)N[C@@H](CCCNC(=N)N)C(=O)N[C@@H](CCC(=O)O)C(=O)N[C@@H](CC(N)=O)C(=O)N[C@H](C(=O)N[C@@H](CO)C(=O)N1CCC[C@H]1C(=O)O)[C@@H](C)O)C(C)C` [Peptide 1622.03], for which, on purified HLA DRB1*0701, the IC50 is above 20 µM.

As for `CC(C)C[C@H](NC(=O)[C@@H]1CCCN1C(=O)[C@H](CO)NC(=O)[C@@H]1CCCN1C(=O)[C@H](CC(=O)O)NC(=O)[C@H](Cc1c[nH]cn1)NC(=O)[C@@H](NC(=O)[C@@H]1CCCN1C(=O)[C@H](CC(C)C)NC(=O)[C@H](CO)NC(=O)[C@H](CCC(N)=O)NC(=O)[C@H](CC(C)C)NC(=O)CNC(=O)[C@H](CCCCN)NC(=O)[C@H](C)N)[C@@H](C)O)C(=O)O` [Peptide 9019.0098], the IC50 on purified HLA DRB5*0101 is above 20 µM.
